What was measured:
Pam 212 keratinocytes [1] = experiment: ATP and ADP release from Pam 212 keratinocytes after skin irritant chemicals (luciferin-luciferase, pyruvate kinase); format: cell-based, mouse; details: for ATP and ADP levels in culture supernatants: Pam 212 keratinocytes, 10 min incubation; for ATP release from Pam 212 keratinocytes: in vitro treatment, ATP in culture supernatants
Description: (§1) FIGS. 3A, 3B, & 3C. […] (FIG. 3A), Pam 212 keratinocytes were treated with croton oil (CO), benzalkonium chloride (BAC), or ethyl phenylpropiolate (EPP) at the indicated concentrations or exposed to UVB irradiation at the indicated doses. […] (FIG. 3C), Pam 212 keratinocytes and XS52 LC were co-cultured at the indicated cell densities and treated for 10 min with PBS alone or with 0.0015% BAC. All data shown in this figure are representative sets of results (mean±SD, n=3) from three independent experiments. * p<0.05; ** p<0.01 (two-tailed Student's t-test).
As the amount of ATP is directly proportional to the light emitted, quantification of the emitted light provides a measure of the amount of ATP. […] Cellular ATP release is then measured by: obtaining cells growing in culture; replacing the culture medium with a buffer; adding the ATP releasing agent (chemical irritant or a modulator of an NTPDase-mediated immune response); obtaining a sample of the buffer surrounding the cells after allowing sufficient time for ATP release by the cell in response to the irritant or modulator of an NTPDase-mediated immune response; adding luciferin and luciferase to this buffer; and quantitating the light released using a luminometer. A negative control can comprise obtaining the same reading with no cells; and/or obtaining the same reading with no added ATP releasing agent. The data are then analyzed by comparing to the standard ATP curve. Generally the cells in such assays may be grown in a multi-well format.
Additionally, the release of ADP into culture media can be measured by the pyruvate kinase-mediated conversion to ATP. This enzymatic assay utilizes pyruvate kinase (PK) which catalyzes the following reaction: Phospho(enol)pyruvate+ADP→Pyruvate+ATP
(§2) ATP and ADP released by endothelial cells and platelets are known to act as pro-inflammatory mediators in the vascular system.

[2] = mouse, in vivo
Text: (§3) FIGS. 4A, 4B, 4C, 4D, 4E, 4F, 4G, & 4H. Irritant contact hypersensitivity responses in CD39-deficient mice. CD39^−/− mice (circles), CD39^+/− mice (triangles) or CD39^+/+ mice (squares) received topical application of 1% croton oil (FIG. 4A), 10% BAC (FIG. 4B), or 30% EPP (FIG. 4C) on the right ear and vehicle alone on the left ear. […] Statistical significant differences compared to the CD39^+/+ mice or to the CD39^+/− mice are indicated by asterisks or sharps, respectively (*^/# p<0.05 and **^/## p<0.01; two-tailed Student's t test). FIG. 4D, Ear skin samples were harvested from CD39^+/+ or CD39^−/− mice 5 days after topical application of vehicle alone or 1% CO and processed to histological analyses after H&E staining (original magnification: ×250). FIG. 4E, CD39^−/− mice (n=6) or C57BL/6 wild-type mice (n=10) (FIG. 4F) received local injections of apyrase on the right ear (closed circles) or PBS alone on the left ear (open circles) before and after topical application of 1% CO on both ears. The data shown are the mean±SEM of the swelling responses (the ear thickness after CO application minus the baseline thickness before application) at the indicated time points. Statistical significant differences (one-tailed Student's t-test) are indicated by asterisks (*p<0.05 and **p<0.01). […]

Pam 212 keratinocytes [3] = experiment: LDH release from Pam 212 keratinocytes (CytoTox 96 assay kit); format: cell-based, mouse
Description: as §1, §2

bone marrow-derived DC [4] = experiment: ATP-mediated cytolysis of bone marrow-derived DC (cell viability, 7-AAD staining); format: cell-based, mouse
Text: (§4) FIGS. 6A, 6B, & 6C. P2Y receptor desensitization in CD39^−/− DC. […] (FIG. 6C), CD39^−/− or CD39^+/+ DC were pre-treated with apyrase or buffer alone and then examined for ATP-mediated activation responses. Data shown are the means±s.d. (n=3) of cell viability (left), IL-6 production (middle), and LY uptake (right). Statistically, significant differences are indicated by asterisks (** P<0.01).
(§5) Measurement of ATP responsiveness.

bone marrow-derived DC [5] = experiment: ATP-induced IL-6 secretion by bone marrow-derived DC (ELISA); format: cell-based, mouse
Text: as §4, §5

bone marrow-derived DC [6] = experiment: ATP-induced pore formation in bone marrow-derived DC (lucifer yellow uptake); format: cell-based, mouse; details: 3 mM ATP, 15 min
Text: as §4, §5

[7] = Inflammatory skin responses to locally administered ATP; format: in vivo, mouse
IA+ epidermal cells = experiment: LC emigration: surface densities of IA+ epidermal cells after local injection of TNFα; format: in vivo, mouse; details: CD39+/+ mice; local injection 100 ng/animal, 48 hr
Text: FIGS. 5A, 5B, 5C, 5D, 5E, 5F, 5G, & 5H. Attenuated immune responses in CD39-deficient mice. […] The data shown are the means±s.e.m. (n=10) of the swelling responses. […] (FIG. 5C) Mice received local injection of TNFα and examined for surface densities of IA^+ epidermal cells (means±s.d., n=3). At 24 hr after topical application of FITC, the DLN were examined for the numbers of migratory LC (means±s.d., n=3) (FIG. 5D) localization of FITC^+ migratory LC after counter-staining of the B cell areas with PE-conjugated B220 mAb (FIG. 5E), and for the surface phenotype of FITC^+ migratory LC (FIG. 5F). Closed and open histograms represent the staining profiles with the indicated mAb and control IgG, respectively. Numbers in the parentheses indicate the mean fluorescence intensities (MFI). (FIG. 5G), Migratory LC isolated from OX-painted CD39^−/− mice (circles) or CD39^+/+ mice (squares) were co-cultured with OX-reactive, wild-type T-cells. The data shown are the means±s.d. (n=3) of interferon-γ (IFN-γ) concentrations in the culture supernatants (* P<0.05). (FIG. 5H), Bone marrow-derived DC generated from CD39^−/− mice (circles) or CD39^+/+ mice (squares) were pulsed with TNBS and injected into CD39^+/+ mice. […]
Measurement of DC function. […] Maturational states of migratory LC were assessed by the surface expression of CD86 and CD40 by the FITC^+ populations in DLN. […]

[8] = Local apyrase injection in croton oil-induced ear swelling; format: in vivo, mouse
Text: as §3

endothelial cells = details: soluble apyrase added in the medium; Imai et al., 2000; cited from earlier work
cytotoxic T-cells = details: cited from earlier work

With benzalkonium chloride the “ATP and ADP levels in culture supernatants” value (Pam 212 keratinocytes [1]) was “detected at comparable levels”, the “ATP release from Pam 212 keratinocytes” value (Pam 212 keratinocytes [1]) was “triggered rapid ATP release in a time- and dose-dependent manner” and the “ear swelling responses in CD39−/− mice compared with CD39+/+ mice” value [2] was “amplified significantly”. The “release of lactate dehydrogenase (LDH)” value (Pam 212 keratinocytes [3]) was “caused rapid release of lactate dehydrogenase (LDH)”.
For `CCOC(=O)C#Cc1ccccc1` [ethyl phenylpropiolate], the “ATP and ADP levels in culture supernatants” value (Pam 212 keratinocytes [1]) was “detected at comparable levels”, the “ATP release from Pam 212 keratinocytes” value (Pam 212 keratinocytes [1]) was “triggered rapid ATP release in a time- and dose-dependent manner” and the “ear swelling responses in CD39−/− mice compared with CD39+/+ mice” value [2] was “amplified significantly”. For the same molecule, the “release of lactate dehydrogenase (LDH)” value (Pam 212 keratinocytes [3]) was “caused rapid release of lactate dehydrogenase (LDH)”.
For `Nc1ncnc2c1ncn2[C@@H]1O[C@H](COP(=O)(O)OP(=O)(O)OP(=O)(O)O)[C@@H](O)[C@H]1O` [ATP, adenosine triphosphate], the “ATP concentration that killed DC significantly” value (bone marrow-derived DC [4]; CD39+/+ DC, 60 min incubation) was 2.5 mM, the “ATP concentration up to which DC were resistant to cytolysis” value (bone marrow-derived DC [4]; CD39−/− DC, 60 min incubation) was “up to 10 mM” and the “IL-6 secretion in response to ATP” value (bone marrow-derived DC [5]; CD39+/+ vs CD39−/− DC, 1 mM ATP, 16 hr) was “CD39^+/+ DC, but not CD39^−/− DC, secreted IL-6”. For the same molecule, the “ATP-induced pore formation (lucifer yellow uptake) in CD39−/− DC” value (bone marrow-derived DC [6]) was “intact nucleotide responsiveness” and the “inflammatory skin responses in CD39−/− mice” value [7] was “markedly elevated inflammatory skin responses”.
With TNFα the “reduction in surface densities of IA+ epidermal cells” value (IA+ epidermal cells) was “about 50%”.
With apyrase the “effect of apyrase pre-treatment on susceptibility of CD39−/− DC to ATP-mediated cytolysis” value (bone marrow-derived DC [4]; apyrase 5 U/ml, 10 min before 2.5 mM ATP) was “restored their susceptibility to ATP-mediated cytolysis”, the “effect of apyrase pre-treatment on capacity of CD39−/− DC to secrete IL-6 upon ATP stimulation” value (bone marrow-derived DC [5]; apyrase 5 U/ml, 10 min before 1 mM ATP) was “restored” and the “effect on early phase ear swelling responses to CO in CD39−/− mice” value ([8]; 0.2U/ear s.c. into ear 10 min before and 1 hr after 1% CO painting) was “diminished the extent of early phase responses”. The “effect on CO-induced skin inflammation in wild-type C57BL/6 mice” value ([8]; 0.2U/ear s.c. into ear before and 1 hr after 1% CO painting) was “further reduced the extent of CO-induced skin inflammation”, the “inhibition of LPS-induced IL-1 secretion” value (endothelial cells) was “can be inhibited” and the “effect on cytolytic capacity of cytotoxic T-cells” value (cytotoxic T-cells) was “inhibited partially”.
